Reference: article PMC7064328 (Environmental Health Perspectives, 2020)

Key:
Assay type in all cases: in vivo, mouse (CD-1)
[1] = Litter parameters at necropsy (implantation sites, resorptions, viable and nonviable embryos); conditions: female, CD-1, mouse, in vivo, oral, percent of implantation sites
Protocol: (§1) On the day of necropsy, dams received daily oral gavage between 0700 and 0800 hours and were weighed and then euthanized humanely by swift decapitation, and serum was collected. In Block 1, necropsies were completed from 0800 to 1600 hours, and in Block 2, necropsies were completed from 0800 to 1200 hours. Serum from dams euthanized in Block 1 was snap frozen for internal dosimetry analyses. Serum and urine from Block 2 dams were reserved for clinical chemistry analyses. In both blocks, the uterus was removed, and total implantation sites were counted based on gross observation of an implantation nodule along the uterine horn. Viable embryos, nonviable embryos, and sites of resorption were counted based on gross observation. Embryos were considered viable if they were properly formed, were not pale in color, and were of similar size to neighboring embryos. Embryos that were poorly formed and pale in color (without heartbeat) were considered nonviable. Sites of resorption were defined as a dark red–appearing clot-like nodule apparent on gross observation.

[2] = tested on: Pregnant CD-1 mice; experiment: as above; conditions: for % nonviable / % resorbed: percent of implantation sites
Protocol: as §1

[3] = tested on: Pregnant CD-1 mice; experiment: Clinical chemistry of dam serum and urine; conditions: for ALB / ALP / ALT / AST / BUN / Chol / Cre / Glu / HDL / LDL / SDH / TBA / TP / Trig: dam serum; for Ucrea: dam urine
Protocol: Dam livers, kidneys, and placentas were trimmed and embedded by the NIEHS Mouse Embryo Phenotyping Core. Tissues collected at necropsy were fixed in 4% PFA for 72 h and paraffin embedded, and 5-μm sections were prepared and stained with hematoxylin and eosin (H&E). Pathology was evaluated and a pathology review conducted by S.A.E. Diplomate American College of Veterinary Pathologists (DACVP). Pathology reviews were conducted as an informed approach analysis [e.g., nonblinded analysis; see Sills et al. ([2019])]. Select tissue slides were scanned using the AT2 Scanner (Aperio). Images were then captured for publication using the ImageScope software; version 12.3.0.5056 (Aperio). Serum and urine obtained from dams in Block 2 were analyzed using the AU480 clinical chemistry analyzer (Beckman Coulter Inc.). Reagents and calibration standards used to measure alkaline phosphatase (ALP), alanine aminotransferase (ALT), aspartate aminotransferase (AST), blood urea nitrogen (BUN), serum creatinine, urine creatinine, glucose (Glu), total protein (TP), triglyceride (Trig), high-density lipoprotein (HDL), cholesterol (Chol), and albumin (ALB) were purchased from Beckman Coulter Inc. Reagents for sorbitol dehydrogenase (SDH), total bile acid (TBA), and micro-TP were purchased from Sekisui Diagnostics. The reagent used to measure low-density lipoprotein (LDL) was purchased form Diazyme Laboratories.

`N.O=C(O)C(F)(OC(F)(F)C(F)(F)C(F)(F)F)C(F)(F)F` (stereo not shown) [GenX, ammonium 2,3,3,3-tetrafluoro-2-(heptafluoropropoxy)propanoate] gave a viability ([1]; 2 mg/kg/d, E11.5) of 95 ± 6.2%, a viability ([1]; 2 mg/kg/d, E17.5) of 98.1 ± 4.6% and a viability ([1]; 10 mg/kg/d, E11.5) of 92.4 ± 9.3%. It also gave a viability ([1]; 10 mg/kg/d, E17.5) of 96.5 ± 5.3%, a No. dead embryos ([2]; E11.5, 2 mg/kg/d) of 0.0 ± 0.0 and a No. implantation sites ([2]; E11.5, 2 mg/kg/d) of 14.7 ± 2.7. For the same molecule, the No. resorptions ([2]; E11.5, 2 mg/kg/d) was 0.7 ± 0.8, the No. viable embryos ([2]; E11.5, 2 mg/kg/d) was 14.0 ± 2.9 and the No. dead embryos ([2]; E11.5, 10 mg/kg/d) was 0.1 ± 0.3. It also gave a No. implantation sites ([2]; E11.5, 10 mg/kg/d) of 14.8 ± 3.7, a No. resorptions ([2]; E11.5, 10 mg/kg/d) of 0.9 ± 1.3 and a No. viable embryos ([2]; E11.5, 10 mg/kg/d) of 13.8 ± 3.7. The No. dead embryos ([2]; E17.5, 2 mg/kg/d) was 0.1 ± 0.3, the No. implantation sites ([2]; E17.5, 2 mg/kg/d) was 13.8 ± 2.0 and the No. resorptions ([2]; E17.5, 2 mg/kg/d) was 0.2 ± 0.6. The No. viable embryos ([2]; E17.5, 2 mg/kg/d) was 13.5 ± 2.1, the No. dead embryos ([2]; E17.5, 10 mg/kg/d) was 0.0 ± 0.0 and the No. implantation sites ([2]; E17.5, 10 mg/kg/d) was 12.5 ± 3.1. For the same molecule, the No. resorptions ([2]; E17.5, 10 mg/kg/d) was 0.5 ± 0.7, the No. viable embryos ([2]; E17.5, 10 mg/kg/d) was 12.0 ± 3.0 and the “% nonviable” value ([2]; E11.5, 2 mg/kg/d) was 0.0 ± 0.0%. The “% resorbed” value ([2]; E11.5, 2 mg/kg/d) was 5.0 ± 6.2%, the “% nonviable” value ([2]; E11.5, 10 mg/kg/d) was 2.1 ± 7.2% and the “% resorbed” value ([2]; E11.5, 10 mg/kg/d) was 5.6 ± 7.7%. For the same molecule, the “% nonviable” value ([2]; E17.5, 2 mg/kg/d) was 0.7 ± 2.4%, the “% resorbed” value ([2]; E17.5, 2 mg/kg/d) was 1.2 ± 4.1% and the “% nonviable” value ([2]; E17.5, 10 mg/kg/d) was 0.0 ± 0.0%. The “% resorbed” value ([2]; E17.5, 10 mg/kg/d) was 3.5 ± 5.3%, the “Chol higher compared with controls” value ([3]; E11.5, 2 mg/kg/d) was 66% and the “Dam serum Trig lowered vs controls” value ([3]; E11.5, 2 mg/kg/d) was 43%. The “HDL higher compared with controls” value ([3]; E11.5, 2 mg/kg/d) was 56%, the “Dam serum Trig lowered vs controls” value ([3]; E11.5, 10 mg/kg/d) was 61% and the “Dam serum Trig lower vs controls” value ([3]; E17.5, 10 mg/kg/d) was 74%. The “LDL lower vs controls” value ([3]; E17.5, 10 mg/kg/d) was 31%, the ALB ([3]; E11.5, 2 mg/kg/d) was 2.75±0.33 (4) g/dL and the ALP ([3]; E11.5, 2 mg/kg/d) was 58.4±9.0 (5) U/L. For the same molecule, the ALT ([3]; E11.5, 2 mg/kg/d) was 24.2±13.7 (5) U/L, the AST ([3]; E11.5, 2 mg/kg/d) was 69.0±22.0 (5) U/L and the BUN ([3]; E11.5, 2 mg/kg/d) was 18.3±4.6 (4) mg/dL. For the same molecule, the Chol ([3]; E11.5, 2 mg/kg/d) was 93.4±27.8 (5) mg/dL, the Cre ([3]; E11.5, 2 mg/kg/d) was 0.2±0.04 (4) mg/dL and the Glu ([3]; E11.5, 2 mg/kg/d) was 249.3±25.8 (4) mg/dL. For the same molecule, the HDL ([3]; E11.5, 2 mg/kg/d) was 50.2±15.7 (5) mg/dL, the LDL ([3]; E11.5, 2 mg/kg/d) was 15±4.8 (4) mg/dL and the SDH ([3]; E11.5, 2 mg/kg/d) was 7.0±6.5 (4) U/L. The TBA ([3]; E11.5, 2 mg/kg/d) was 1.4±0.55 (5) μM/L, the TP ([3]; E11.5, 2 mg/kg/d) was 4.5±0.48 (4) g/dL and the Trig ([3]; E11.5, 2 mg/kg/d) was 117.6±33.9 (5) mg/dL. For the same molecule, the ALB ([3]; E11.5, 10 mg/kg/d) was 2.8±0.17 (3) g/dL, the ALP ([3]; E11.5, 10 mg/kg/d) was 83.0±25.8 (5) U/L and the ALT ([3]; E11.5, 10 mg/kg/d) was 78.2±62.0 (5) U/L. For the same molecule, the AST ([3]; E11.5, 10 mg/kg/d) was 136.8±138.9 (4) U/L, the BUN ([3]; E11.5, 10 mg/kg/d) was 13.7±1.5 (3) mg/dL and the Chol ([3]; E11.5, 10 mg/kg/d) was 77.0±16.4 (4) mg/dL. The Cre ([3]; E11.5, 10 mg/kg/d) was 0.18±0.02 (3) mg/dL, the Glu ([3]; E11.5, 10 mg/kg/d) was 226.7±28.9 (3) mg/dL and the HDL ([3]; E11.5, 10 mg/kg/d) was 43.3±6.1 (4) mg/dL. The LDL ([3]; E11.5, 10 mg/kg/d) was 12.5±1.9 (4) mg/dL, the SDH ([3]; E11.5, 10 mg/kg/d) was 8.0±3.65 (4) U/L and the TBA ([3]; E11.5, 10 mg/kg/d) was 35.3±67.8 (4) μM/L. The TP ([3]; E11.5, 10 mg/kg/d) was 4.37±0.29 (3) g/dL, the Trig ([3]; E11.5, 10 mg/kg/d) was 80.3±14.4 (4) mg/dL and the ALB ([3]; E17.5, 2 mg/kg/d) was 2.32±0.26 (5) g/dL. The ALP ([3]; E17.5, 2 mg/kg/d) was 55.4±11.8 (5) U/L, the ALT ([3]; E17.5, 2 mg/kg/d) was 4.4±3.9 (5) U/L and the AST ([3]; E17.5, 2 mg/kg/d) was 65.6±12.1 (5) U/L. The BUN ([3]; E17.5, 2 mg/kg/d) was 13.6±1.1 (5) mg/dL, the Chol ([3]; E17.5, 2 mg/kg/d) was 86.6±17.1 (5) mg/dL and the Cre ([3]; E17.5, 2 mg/kg/d) was 0.17±0.03 (5) mg/dL. The Glu ([3]; E17.5, 2 mg/kg/d) was 123.2±13.1 (5) mg/dL, the HDL ([3]; E17.5, 2 mg/kg/d) was 39.4±8.5 (5) mg/dL and the LDL ([3]; E17.5, 2 mg/kg/d) was 20.0±3.9 (5) mg/dL. The SDH ([3]; E17.5, 2 mg/kg/d) was 1.2±2.2 (5) U/L, the TBA ([3]; E17.5, 2 mg/kg/d) was 4.8±3.0 (5) μM/L and the TP ([3]; E17.5, 2 mg/kg/d) was 4.1±0.36 (5) g/dL. For the same molecule, the Trig ([3]; E17.5, 2 mg/kg/d) was 257.0±120.3 (5) mg/dL, the ALB ([3]; E17.5, 10 mg/kg/d) was 2.26±0.3 (5) g/dL and the ALP ([3]; E17.5, 10 mg/kg/d) was 88.8±13.0 (5) U/L. For the same molecule, the ALT ([3]; E17.5, 10 mg/kg/d) was 9.6±2.1 (5) U/L, the AST ([3]; E17.5, 10 mg/kg/d) was 113.2±36.6 (5) U/L and the BUN ([3]; E17.5, 10 mg/kg/d) was 15.2±1.8 (5) mg/dL. The Chol ([3]; E17.5, 10 mg/kg/d) was 97.4±8.4 (5) mg/dL, the Cre ([3]; E17.5, 10 mg/kg/d) was 0.15±0.06 (5) mg/dL and the Glu ([3]; E17.5, 10 mg/kg/d) was 111.6±15.5 (5) mg/dL. For the same molecule, the HDL ([3]; E17.5, 10 mg/kg/d) was 50.0±8.9 (5) mg/dL, the LDL ([3]; E17.5, 10 mg/kg/d) was 15.2±2.9 (5) mg/dL and the SDH ([3]; E17.5, 10 mg/kg/d) was 11.4±6.8 (5) U/L. The TBA ([3]; E17.5, 10 mg/kg/d) was 6.2±4.2 (5) μM/L, the TP ([3]; E17.5, 10 mg/kg/d) was 3.9±0.52 (5) g/dL and the Trig ([3]; E17.5, 10 mg/kg/d) was 120.6±31.7 (5) mg/dL. The Ucrea ([3]; E11.5, 2 mg/kg/d) was 53.2±14.0 (3) mg/dL, the Ucrea ([3]; E11.5, 10 mg/kg/d) was 82.9±33.2 (5) mg/dL and the Ucrea ([3]; E17.5, 2 mg/kg/d) was 18.6±5.1 (4) mg/dL. For the same molecule, the Ucrea ([3]; E17.5, 10 mg/kg/d) was 20.2±15.7 (4) mg/dL.
